Source: patent US8828988B2 (Tetraphase Pharmaceuticals, Inc., priority 2009, dated 2014)
≈ marks a conversion by molar mass, not a printed value. Where two headings read alike, the source gives them in different places.

What was measured:
[1] = tested on: Staphylococcus aureus SA101, ATCC 29213, MSSA; assay: MIC assay, SA101; type: cell-based
[2] = tested on: Staphylococcus aureus SA100, ATCC 13709, MSSA, Smith strain; assay: MIC assay, SA100; type: cell-based
[3] = tested on: Staphylococcus aureus SA161, HA-MRSA, tetracycline-resistant, tet(M); assay: MIC assay, SA161; type: cell-based
[4] = tested on: Enterococcus faecalis EF103, ATCC 29212; assay: MIC assay, EF103; type: cell-based
[5] = tested on: Enterococcus faecalis EF159, tetracycline-resistant, tet(M); assay: MIC assay, EF159; type: cell-based
[6] = tested on: Streptococcus pneumoniae SP106, ATCC 49619; assay: MIC assay, SP106; type: cell-based
[7] = tested on: Streptococcus pneumoniae SP160, tetracycline-resistant, tet(M); assay: MIC assay, SP160; type: cell-based
[8] = tested on: Escherichia coli EC155, tetracycline-resistant, tet(A); assay: MIC assay, EC155; type: cell-based
[9] = tested on: Acinetobacter baumannii AB110, ATCC 19606; assay: MIC assay, AB110; type: cell-based; conditions: ATCC19606, Table 9, read-out: MIC A.baum AB110
[10] = tested on: Pseudomonas aeruginosa PA111, ATCC 27853; assay: MIC assay, PA111; type: cell-based; conditions: ATCC27853, Table 9, read-out: MIC P. aeruginosa ATCC 27853
[11] = tested on: Enterobacter cloacae EC108, ATCC 13047; assay: MIC assay, EC108; type: cell-based; conditions: ATCC13047, Table 9, read-out: MIC Enterobacter cloaceae ATCC 13047
[12] = tested on: Klebsiella pneumoniae KP109, ATCC 13883; assay: MIC assay, KP109; type: cell-based; conditions: ATCC13883, Table 9, read-out: MIC Klebsiella pneum ATCC 13883
[13] = tested on: E. faecalis clinical isolates; assay: MIC50, MIC90 and MIC range, panel of clinical isolates (Example 20); type: cell-based; conditions: 24 isolates, in µg/mL
Method: (§1) The assays were run as follows.
(§2) Both values, as well as the MIC range (the lowest and highest MIC value observed for a collection of organisms), were determined for the isolates listed in Table 3.

[14] = tested on: S. aureus clinical isolates; assay: as above; type: cell-based; conditions: MRSA, 30 isolates; in µg/mL
Method: as §1, §2

[15] = tested on: S. pneumoniae clinical isolates; assay: as above; type: cell-based; conditions: 19 isolates, in µg/mL
Method: as §1, §2

[16] = tested on: E. coli DH10B(pBAD-tetM), expressing tet(M); assay: MIC against recombinant E. coli expressing tet(M); type: cell-based; conditions: for MIC: Escherichia coli
Text: Constructs were transformed into E. coli DH10B for expression. Recombinant strains were pre-induced under optimized conditions with L-arabinose prior to use as inocula in CLSI standardized MIC assays.

[17] = tested on: E. coli S30 extract system, coupled in vitro transcription/translation, firefly luciferase readout; assay: In vitro transcription/translation (TnT) assay; type: biochemical; conditions: Table 8
[18] = tested on: tet(K) strains of S. aureus; assay: MIC, CLSI methodology, recent clinical isolates (Example 21); type: cell-based; conditions: Staphylococcus aureus, read-out: MIC against tet(K) strains of S. aureus
Method: as §1
(§3) The antibacterial activities of Compounds MIC values were determined according to CLSI methodology. Recent clinical isolates were obtained from Eurofins-Medinet. Antibiotics were obtained from standard commercial sources.

[19] = tested on: tet(M) and tet(S) strains of E. faecalis; assay: as above; type: cell-based; conditions: Enterococcus faecalis, read-out: MIC against tet(M) and tet(S) strains of E. faecalis
Method: as §1, §3

[20] = tested on: tet(M) strains of S. aureus; assay: as above; type: cell-based; conditions: Staphylococcus aureus, read-out: MIC against tet(M) strains of S. aureus
Method: as §1, §3

[21] = tested on: tet(M) strains of S. pneumoniae; assay: as above; type: cell-based; conditions: Streptococcus pneumoniae, read-out: MIC against tet(M) strains of S. pneumoniae
Method: as §1, §3

[22] = in vivo; conditions: Sprague-Dawley, rat
[23] = tested on: S. pneumoniae isolates (Eurofins-Medinet, recent clinical isolates); assay: MIC50 and MIC90 analysis (Example 22)
Method: (§4) Frozen bacterial strains were thawed and subcultured onto Mueller Hinton Broth (MHB) or other appropriate media (Streptococcus requires blood and Haemophilus requires hemin and NAD). Following incubation overnight, the strains were subcultured onto Mueller Hinton Agar and again incubated overnight. […] Isolated colonies were selected to prepare a starting inoculum equivalent to a 0.5 McFarland standard. […] Antibiotics (stored frozen, thawed and used within 3 hours of thawing) and compounds were further diluted to the desired working concentrations.
(§5) The assays were run as follows. Fifty μL of MHB was added to wells 2-12 of a 96-well plate. One hundred μL of appropriately diluted antibiotic or compound was added to well 1. Fifty μL of antibiotics or compound was removed from well 1 and added to well 2 and the contents of well 2 mixed by pipetting up and down five times. Fifty μL of the mixture in well 2 was removed and added to well 3 and mixed as above. Serial dilutions were continued in the same manner through well 12. Fifty μL was removed from well 12 so that all contained 50 μL. Fifty μL of the working inoculum was then added to all test wells. A growth control well was prepared by adding 50 μL of working inoculum and 50 μL of MHB to an empty well. The plates were then incubated at 37° C. overnight, removed from the incubator and each well was read on a plate reading mirror. The lowest concentration (MIC) of test compound that inhibited the growth of the bacteria was recorded.
(§6) MIC, MIC50 and MIC90 values were determined according to CLSI methodology. S. pneumoniae and H. influenzae isolates were obtained from Eurofins-Medinet and are recent clinical isolates. S. aureus strains were collected from various geographical sources.

[24] = tested on: S. aureus strains collected from various geographical sources; assay: MIC50 and MIC90 analysis (Example 22)
Method: as §4, §5, §6

[25] = Pharmacokinetic analysis in Sprague-Dawley rats; conditions: IV, single dose 1 mg/kg, mean
[26] = tested on: E. coli ATCC 25922; assay: Mouse systemic infection model, E. coli septicemia; conditions: survival after 48 hours

CN(C)CC(C)(C)CNc1nc(Cl)c2c(c1O)C(=O)C1=C(O)[C@]3(O)C(=O)C(C(N)=O)=C(O)[C@@H](N(C)C)[C@@H]3C[C@@H]1C2 [Compound 151]
MIC ([1]; Table 8, read-out: MIC S. aureus ATCC 29213): 0.25 µg/mL (≈ 0.432 µM)
MIC ([1]; Table 9, read-out: MIC S. aureus ATCC 29213): 0.25 µg/mL (≈ 0.432 µM)
MIC ([2]; Table 9, read-out: MIC S. aureus ATCC 13709): 0.5 µg/mL (≈ 0.865 µM)
MIC ([2]; Table 12, read-out: MIC S. aureus ATCC 13709): 0.5 µg/mL (≈ 0.865 µM)
MIC ([3]; Table 8, read-out: MIC S. aureus MRSA, tetM): 2 µg/mL (≈ 3.46 µM)
MIC ([3]; Table 9, read-out: MIC MRSA (tet)M SA161): 2 µg/mL (≈ 3.46 µM)
MIC ([4]; Enterococcus faecalis, ATCC29212, Table 8, read-out: MIC E. faecalis ATCC 29212): 0.25 µg/mL (≈ 0.432 µM)
MIC E. faecalis ATCC 29212 ([4]; Table 9): 0.25 µg/mL (≈ 0.432 µM)
MIC ([5]; Table 8, read-out: MIC E. faecalis tetM): 2 µg/mL (≈ 3.46 µM)
MIC ([5]; Table 9, read-out: MIC E. faecalis EF159 (tet)M): 2 µg/mL (≈ 3.46 µM)
MIC ([6]; ATCC49619, Table 8, read-out: MIC S. pneumoniae ATCC 49619): 0.063 µg/mL (≈ 0.109 µM)
MIC ([6]; ATCC49619, Table 9, read-out: MIC S. pneum ATCC 49619): 0.016 µg/mL (≈ 0.0277 µM)
MIC ([7]; Table 8, read-out: MIC S. pneumoniae tetM): 0.5 µg/mL (≈ 0.865 µM)
MIC ([7]; Table 9, read-out: MIC S. pneum SP160 (tet)M): 0.125 µg/mL (≈ 0.216 µM)
MIC ([8]; Table 8, read-out: MIC E. coli tetA): 8 µg/mL (≈ 13.8 µM)
MIC ([8]; Table 9, read-out: MIC E. coli EC155 (tet)A): 8 µg/mL (≈ 13.8 µM)
MIC [9]: 2 µg/mL (≈ 3.46 µM)
MIC [10]: 32 µg/mL (≈ 55.4 µM)
MIC [11]: 2 µg/mL (≈ 3.46 µM)
MIC [12]: 2 µg/mL (≈ 3.46 µM)
MIC Range [13]: 0.031-4
MIC Range [14]: 0.5-8
MIC Range [15]: <=0.016-0.25
MIC ([16]; read-out: MIC, TetM induced): 1 µg/mL
MIC ([16]; read-out: MIC, Uninduced): 0.5 µg/mL
Ratio (TetM induced / Uninduced) ([16]; ratio of MICs): 2
Effect of expression of (tet)M on activity ([16]; result in words): minimally affected
E. coli TnT [17]: 0.7 µg/mL
MIC [18]: ≤ 1 µg/mL
MIC [19]: ≤ 4 µg/mL
MIC [20]: ≤ 8 µg/mL
MIC [21]: ≤ 0.25 µg/mL
AUC(0-t) ([22]; iv, 1 mg/kg): 4870 ng·h/mL
Cmax ([22]; iv, 1 mg/kg): 2400 ng/mL
Tmax ([22]; iv, 1 mg/kg): 13.2 min
bioavailability ([22]; oral, 10 mg/kg): 0.8%
AUC(0-t) ([22]; po, 10 mg/kg): 395 ng·h/mL
Cmax ([22]; po, 10 mg/kg): 69.8 ng/mL
Tmax ([22]; po, 10 mg/kg): 49.8 min
half-life ([22]; po, 10 mg/kg): 313 min
MIC Range ([23]; S. pneumoniae (n = 20)): ≦0.016-0.063 μg/ml
MIC50 ([23]; Streptococcus pneumoniae): ≤ 0.016 µg/mL
MIC90 ([23]; Streptococcus pneumoniae): 0.063 µg/mL (≈ 0.109 µM)
MIC Range ([24]; S. aureus (n = 20)): 0.063 to 0.5 µg/mL
MIC50 ([24]; Staphylococcus aureus): 0.13 µg/mL (≈ 0.225 µM)
MIC90 ([24]; Staphylococcus aureus): 0.25 µg/mL (≈ 0.432 µM)
Clobs [25]: 3.3723 mL/min/kg
Vzobs [25]: 1.25614 L/kg
half-life [25]: 258 min
PD50 in the mouse septicemia model against E. coli ([26]; CD-1 mice, IP infection, treatment one hour post-challenge): 17.0 mg/kg
PD50 ([26]; mouse septicemia, E. coli ATCC 25922, treatment one hour post-challenge): 17.0 mg/kg
